Like-named read-outs stand apart in the source and are kept apart here.
How the values were obtained:
[1] = target: T1, human RXFP3 (Homo sapiens, UniProt Q9NSD7); test: RXFP3 cAMP accumulation assay (inhibition of relaxin-3 activity) in stable CHO human RXFP3 cells
T1 sequence (Q9NSD7 1-469): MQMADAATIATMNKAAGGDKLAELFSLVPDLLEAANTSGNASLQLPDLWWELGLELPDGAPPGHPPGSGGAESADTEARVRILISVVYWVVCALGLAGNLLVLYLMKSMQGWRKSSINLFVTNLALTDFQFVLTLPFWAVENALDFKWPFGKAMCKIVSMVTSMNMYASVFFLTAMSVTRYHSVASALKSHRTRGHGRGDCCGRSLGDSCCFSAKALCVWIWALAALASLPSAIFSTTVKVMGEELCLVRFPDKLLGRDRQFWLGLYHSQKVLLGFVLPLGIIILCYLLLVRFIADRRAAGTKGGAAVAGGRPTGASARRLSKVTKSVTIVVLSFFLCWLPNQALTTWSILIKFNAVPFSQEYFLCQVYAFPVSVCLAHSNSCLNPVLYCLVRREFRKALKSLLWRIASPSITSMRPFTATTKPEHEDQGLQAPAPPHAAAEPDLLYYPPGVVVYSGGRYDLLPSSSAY
Description: The assay is based on the competition between a europium chelate-labeled cAMP tracer and unlabeled cAMP produced by cells. […] CHO human RXFP3 cells were cultured in F12 media supplemented with 10% FBS, 100 units/mL penicillin, 100 μg/mL streptomycin, and 400 μg/mL geneticin. Stimulation buffer containing 1×HBSS, 5 mM HEPES (pH 7.4), 0.1% BSA stabilizer, and 0.5 mM IBMX was prepared. A concentration response curve of each test compound was prepared at 4 times the desired final concentration in 4% DMSO/stimulation buffer, and 5 μL was added to the assay plate. […] Forskolin (1 μM) was prepared at 4 times the desired concentration in stimulation buffer, and 5 μL was added to the assay plate. Cells were lifted from flasks with versene and spun at 270 g for 5 min. The cell pellet was resuspended in stimulation buffer and 5000 cells (5 μL) were added to each well. After incubating for 30 min at room temperature, Eu cAMP tracer and uLIGHT-anticAMP working solutions were added per the manufacturer's instructions.

[2] = target: T2, RXFP1 (Homo sapiens, UniProt Q9HBX9); test: Activity at RXFP1 (selectivity); type: cell-based; conditions: all concentrations tested up to 30 μM
T2 sequence (Q9HBX9 1-757): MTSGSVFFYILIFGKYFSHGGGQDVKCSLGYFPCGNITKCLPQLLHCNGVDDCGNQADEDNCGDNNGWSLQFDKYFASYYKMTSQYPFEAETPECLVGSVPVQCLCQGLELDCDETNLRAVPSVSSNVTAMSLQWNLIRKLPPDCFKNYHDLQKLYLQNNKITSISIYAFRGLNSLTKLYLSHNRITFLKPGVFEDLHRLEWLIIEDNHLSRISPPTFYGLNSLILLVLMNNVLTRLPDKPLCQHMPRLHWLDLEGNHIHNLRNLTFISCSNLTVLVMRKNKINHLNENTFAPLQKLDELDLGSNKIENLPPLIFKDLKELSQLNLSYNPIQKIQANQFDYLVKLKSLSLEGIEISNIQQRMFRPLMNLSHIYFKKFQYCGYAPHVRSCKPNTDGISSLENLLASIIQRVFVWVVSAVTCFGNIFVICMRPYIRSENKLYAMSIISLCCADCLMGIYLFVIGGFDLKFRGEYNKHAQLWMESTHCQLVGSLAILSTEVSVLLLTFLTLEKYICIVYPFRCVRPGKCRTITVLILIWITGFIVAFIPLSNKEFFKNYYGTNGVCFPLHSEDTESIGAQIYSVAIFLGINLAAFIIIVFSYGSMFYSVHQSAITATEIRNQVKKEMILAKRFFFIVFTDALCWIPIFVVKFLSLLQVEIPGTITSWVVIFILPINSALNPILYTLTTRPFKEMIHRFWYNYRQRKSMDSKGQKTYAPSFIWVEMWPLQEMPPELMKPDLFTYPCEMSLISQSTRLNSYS
Description: It is believed that these compounds represent the first series of small molecule RXFP3 antagonists to be described.

[3] = IC50 (functional RXFP3 antagonist), inhibition of relaxin-3 activity, RXFP3-CHO cAMP assay

| SMILES | IC50 [1] [µM] | also measured |
| --- | --- | --- |
| O=C(Nc1ccc(-c2nc(-c3ccccc3)no2)cc1)C1CC(=O)N(Cc2ccccc2)C1 (stereo not shown) [RLX-2, 1-Benzyl-N-[4-(3-phenyl-1,2,4-oxadiazol-5-yl)phenyl]-5-oxopyrrolidine-3-carboxamide] | 7.53 ± 0.998 | – |
| Cc1ccc(-c2noc(-c3ccc(NC(=O)C4CC(=O)N(CCc5ccccc5)C4)cc3)n2)cc1 (stereo not shown) [RLX-4, N-{4-[3-(4-Methylphenyl)-1,2,4-oxadiazol-5-yl]phenyl}-5-oxo-1-(2-phenylethyl)pyrrolidine-3-carboxamide] | > 10 | – |
| Cc1ccc(-c2noc(-c3ccc(NC(=O)C4CC(=O)N(Cc5cccc(C)c5)C4)cc3)n2)cc1 (stereo not shown) [RLX-8, 1-[(3-Methylphenyl)methyl]-N-{4-[3-(4-methylphenyl)-1,2,4-oxadiazol-5-yl]phenyl}-5-oxopyrrolidine-3-carboxamide] | > 10 | – |
| Cc1ccc(-c2noc(-c3ccc(NC(=O)C4CC(=O)N(Cc5cccnc5)C4)cc3)n2)cc1 (stereo not shown) [RLX-10, N-{4-[3-(4-Methylphenyl)-1,2,4-oxadiazol-5-yl]phenyl}-5-oxo-1-[(pyridin-3-yl)methyl]-pyrrolidine-3-carboxamide] | 2.35 ± 0.248 | – |
| Cc1cccc(-c2noc(-c3ccc(NC(=O)C4CC(=O)N(Cc5cccnc5)C4)cc3)n2)c1 (stereo not shown) [RLX-17, N-{4-[3-(3-Methylphenyl)-1,2,4-oxadiazol-5-yl]phenyl}-5-oxo-1-[(pyridin-3-yl)methyl]-pyrrolidine-3-carboxamide] | 5.35 ± 1.34 | – |
| O=C(Nc1ccc(-c2nc(-c3cccc(F)c3)no2)cc1)C1CC(=O)N(Cc2cccnc2)C1 (stereo not shown) [RLX-19, N-{4-[3-(3-Fluorophenyl)-1,2,4-oxadiazol-5-yl]phenyl}-5-oxo-1-(3-pyridinylmethyl) pyrrolidine-3-carboxamide] | 1.34 ± 0.226 | IC50 [1, 3]: 1.3 µM |
| COc1ccc(-c2noc(-c3ccc(NC(=O)C4CC(=O)N(Cc5cccnc5)C4)cc3)n2)cc1 (stereo not shown) [RLX-22, N-{4-[3-(4-Methoxyphenyl)-1,2,4-oxadiazol-5-yl]phenyl}-5-oxo-1-[(pyridin-3-yl)methyl]-pyrrolidine-3-carboxamide] | – | IC50 (nM) ([1]; inhibition of relaxin-3 (0.6 nM) activity, forskolin-stimulated cAMP accumulation, CHO human RXFP3 cells, mean ± SEM of at least three independent experiments in duplicate): Not active |
| O=C(Nc1ccc(-c2nc(-c3ccc(Cl)cc3)no2)cc1)C1CC(=O)N(Cc2cccnc2)C1 (stereo not shown) [RLX-24, N-{4-[3-(4-Chlorophenyl)-1,2,4-oxadiazol-5-yl]phenyl}-5-oxo-1-[(pyridin-3-yl)methyl]-pyrrolidine-3-carboxamide] | 1.25 ± 0.219 | IC50 [1, 3]: 1.2 µM |
| O=C(Nc1ccc(-c2nc(-c3ccc(Br)cc3)no2)cc1)C1CC(=O)N(Cc2cccnc2)C1 (stereo not shown) [RLX-25, N-{4-[3-(4-Bromophenyl)-1,2,4-oxadiazol-5-yl]phenyl}-5-oxo-1-[(pyridin-3-yl)methyl]-pyrrolidine-3-carboxamide] | 2.89 ± 0.193 | – |
| O=C(Nc1ccc(-c2nc(-c3ccc(C(F)(F)F)cc3)no2)cc1)C1CC(=O)N(Cc2ccco2)C1 (stereo not shown) [RLX-32, 1-[(Furan-2-yl)methyl]-5-oxo-N-(4-{3-[4-(trifluoromethyl)phenyl]-1,2,4-oxadiazol-5-yl}phenyl)pyrrolidine-3-carboxamide] | 6.68 ± 0.349 | – |
| O=C(Nc1ccc(-c2nc(-c3ccc(Cl)cc3)no2)cc1)C1CC(=O)N(Cc2ccco2)C1 (stereo not shown) [RLX-33, N-{4-[3-(4-Chlorophenyl)-1,2,4-oxadiazol-5-yl]phenyl}-1-[(furan-2-yl)methyl]-5-oxopyrrolidine-3-carboxamide] | 2.88 ± 0.321 | activity at RXFP1 [2]: no activity; IC50 [1, 3]: 2.9 µM |
| Cc1ccc(-c2noc(-c3ccc(NC(=O)C4CCN(Cc5ccccc5)C4)cc3)n2)cc1 (stereo not shown) [RLX-37, 1-Benyl-N-{4-[3-(4-methylphenyl)-1,2,4-oxadiazol-5-yl]phenyl}-pyrrolidine-3-carboxamide] | > 10 | – |

Further lines, with some results ahead:

| IC50 [1] [µM] | SMILES | also measured |
| --- | --- | --- |
| 4.81 ± 0.682 | Cc1ccc(-c2noc(-c3ccc(NC(=O)C4CC(=O)N(Cc5ccccn5)C4)cc3)n2)cc1 (stereo not shown) [RLX-9, N-{4-[3-(4-Methylphenyl)-1,2,4-oxadiazol-5-yl]phenyl}-5-oxo-1-[(pyridin-2-yl)methyl]-pyrrolidine-3-carboxamide] | – |
| 2.72 ± 0.384 | Cc1ccc(-c2noc(-c3ccc(NC(=O)C4CC(=O)N(C)C4)cc3)n2)cc1 (stereo not shown) [RLX-15, 1-Methyl-N-{4-[3-(4-methylphenyl)-1,2,4-oxadiazol-5-yl]phenyl}-5-oxopyrrolidine-3-carboxamide] | – |
| 6.61 ± 0.909 | O=C(Nc1ccc(-c2nc(-c3ccccc3)no2)cc1)C1CC(=O)N(Cc2cccnc2)C1 (stereo not shown) [RLX-16, 5-Oxo-N-[4-(3-phenyl-1,2,4-oxadiazol-5-yl)phenyl]-1-[(pyridin-3-yl)methyl]-pyrrolidine-3-carboxamide] | – |
| 1.91 ± 0.367 | O=C(Nc1ccc(-c2nc(-c3ccc(F)cc3)no2)cc1)C1CC(=O)N(Cc2cccnc2)C1 (stereo not shown) [RLX-20, N-{4-[3-(4-Fluorophenyl)-1,2,4-oxadiazol-5-yl]phenyl}-5-oxo-1-[(pyridin-3-yl)methyl]-pyrrolidine-3-carboxamide] | – |
| 2.5 ± 0.097 | O=C(Nc1ccc(-c2nc(-c3ccc(C(F)(F)F)cc3)no2)cc1)C1CC(=O)N(Cc2cccnc2)C1 (stereo not shown) [RLX-21, 5-Oxo-1-[(pyridin-3-yl)methyl]-N-(4-{3-[4-(trifluoromethyl)phenyl]-1,2,4-oxadiazol-5-yl}phenyl)-pyrrolidine-3-carboxamide] | – |
| 5.59 ± 0.623 | Cc1ccc(-c2noc(-c3ccc(NC(=O)CCNCc4ccccc4)cc3)n2)cc1 [RLX-39, 3-[Benzylamino]-N-{4-[3-(4-methylphenyl)-1,2,4-oxadiazol-5-yl]phenyl}propanamide] | – |
